In one assay the test system is A431. Description: A431 cell proliferation assay (CellTiter Glo, 72 hours). Format: cell-based. The following applies: Homo sapiens, A-431, 72 h, cell proliferation, A431, 72 hours, Table 2; read-out: A431 IC50. In a few lines: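 A431 cells (2000/well) exposed 72 h to compound at 1000 nM down to 0.2 nM in 3-fold steps, 0.1% DMSO (0.5% for some series). Viability by CellTiter-Glo luminescence; IC50 by four-parameter nonlinear regression.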
A general note: In ATP-based viability assays light output follows the ATP content of the culture.

The target of assay [1] is Ba/F3-EGFR wild-type cell line (Homo sapiens, UniProt P00533). Briefly: Ba/F3-EGFR wild-type cell proliferation assay (CellTiter Glo, 72 hours). Format: cell-based. The following applies: Table 2, read-out: EGFR WT IC50. The method, boiled down:
(§1)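 Ba/F3 cells stably overexpressing wild-type EGFR or EGFR Δ19del/T790M/C797S were seeded at 2000 cells/well and incubated 72 h with compound. Viability was read by CellTiter-Glo luminescence, and IC50 came from a four-parameter logistic fit of signal against log concentration.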

The target in the next assay is IGF1R (Homo sapiens, UniProt P08069). Description: IGF1R kinase test (mobility variation analysis, Caliper EZ Reader). Format: biochemical. To be noted: kinase enzymatic activity, Table 1; read-out: EGFR IGF1R IC50. The method, boiled down: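 Kinase preincubated 10 min at room temperature with compound (10-point 3-fold series, top 3000 nM), then ATP and substrate added and reacted at room temperature. Substrate conversion read by mobility-shift (Caliper EZ Reader); % inhibition vs no-enzyme and no-compound controls fitted to variable-slope curve for IC50.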

The target of assay [2] is Ba/F3 cells with EGFR Δ19del/T790M/C797S mutation gene stably overexpressed (Homo sapiens, UniProt P00533, T790M/C797S, cells depend on it, form not given). Briefly: Ba/F3-Δ19del/T790M/C797S cell proliferation assay (CellTiter Glo, 72 hours). The format is cell-based. To be noted: Table 2, read-out: EGFR Δ19del/T790M/C797S IC50. In a few lines:
as §1

Another assay addresses EGFR WT (Homo sapiens, UniProt P00533). Description: EGFR WT kinase test (mobility variation analysis, Caliper EZ Reader). Format: biochemical. To be noted: kinase enzymatic activity, Table 1. In a few lines: (§2)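 Kinase pre-incubated with compound 10 minutes at room temperature, then ATP plus peptide substrate added; substrate conversion read by mobility shift after stop solution. Percent inhibition normalized to no-compound and no-enzyme controls; IC50 from variable-slope log(inhibitor) fit.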

The target in a further assay is EGFRΔ19del/T790M/C797S (Homo sapiens, UniProt P00533, T790M/C797S, form not given). Briefly: EGFR Δ19del/T790M/C797S kinase test (mobility variation analysis, Caliper EZ Reader). To be noted: kinase enzymatic activity, Table 1. Format: biochemical. The method, boiled down: as §2
Chain of EGFRΔ19del/T790M/C797S (P00533 with tags, fused parts or gaps DEL746-750/T790M/C797S, form open): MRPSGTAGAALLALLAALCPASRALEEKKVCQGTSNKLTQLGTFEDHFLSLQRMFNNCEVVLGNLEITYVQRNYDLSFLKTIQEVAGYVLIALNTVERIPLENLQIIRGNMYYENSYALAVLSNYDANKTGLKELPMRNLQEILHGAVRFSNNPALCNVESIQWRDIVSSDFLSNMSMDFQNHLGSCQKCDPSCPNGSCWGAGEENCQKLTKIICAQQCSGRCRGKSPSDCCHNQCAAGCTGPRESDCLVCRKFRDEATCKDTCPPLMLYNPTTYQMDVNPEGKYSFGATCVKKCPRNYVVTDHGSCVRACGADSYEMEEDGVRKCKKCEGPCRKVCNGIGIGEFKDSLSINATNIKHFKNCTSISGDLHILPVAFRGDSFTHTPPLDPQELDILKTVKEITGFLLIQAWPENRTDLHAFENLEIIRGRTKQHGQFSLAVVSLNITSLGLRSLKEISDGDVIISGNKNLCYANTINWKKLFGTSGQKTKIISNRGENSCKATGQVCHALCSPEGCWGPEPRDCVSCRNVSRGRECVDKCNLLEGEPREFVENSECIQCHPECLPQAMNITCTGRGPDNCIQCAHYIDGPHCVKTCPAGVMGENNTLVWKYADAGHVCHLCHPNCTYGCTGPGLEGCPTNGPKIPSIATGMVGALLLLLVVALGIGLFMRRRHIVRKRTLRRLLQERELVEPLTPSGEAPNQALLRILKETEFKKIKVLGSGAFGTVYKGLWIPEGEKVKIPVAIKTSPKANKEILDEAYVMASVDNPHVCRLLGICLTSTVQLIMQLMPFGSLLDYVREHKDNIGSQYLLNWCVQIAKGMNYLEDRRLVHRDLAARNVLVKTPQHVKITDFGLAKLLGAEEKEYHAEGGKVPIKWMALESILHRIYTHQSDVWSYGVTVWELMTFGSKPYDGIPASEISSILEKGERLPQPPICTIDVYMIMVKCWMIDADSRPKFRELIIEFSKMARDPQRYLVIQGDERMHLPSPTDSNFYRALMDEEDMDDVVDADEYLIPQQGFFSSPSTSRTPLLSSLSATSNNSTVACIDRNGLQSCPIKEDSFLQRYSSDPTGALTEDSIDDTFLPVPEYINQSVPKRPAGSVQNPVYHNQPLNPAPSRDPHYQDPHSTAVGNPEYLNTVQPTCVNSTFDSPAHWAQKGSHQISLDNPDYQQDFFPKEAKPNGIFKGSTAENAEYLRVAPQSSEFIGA

The results in this text go back to patent US20220402948A1, “EGFR INHIBITOR, COMPOSITION AND PREPARATION METHOD THEREFOR” (BETTA PHARMACEUTICALS CO., LTD., priority 2019, published 2022).

What is called IC50 is the concentration that gives 50% inhibition.

Chain of EGFR WT (P00533 25-1210): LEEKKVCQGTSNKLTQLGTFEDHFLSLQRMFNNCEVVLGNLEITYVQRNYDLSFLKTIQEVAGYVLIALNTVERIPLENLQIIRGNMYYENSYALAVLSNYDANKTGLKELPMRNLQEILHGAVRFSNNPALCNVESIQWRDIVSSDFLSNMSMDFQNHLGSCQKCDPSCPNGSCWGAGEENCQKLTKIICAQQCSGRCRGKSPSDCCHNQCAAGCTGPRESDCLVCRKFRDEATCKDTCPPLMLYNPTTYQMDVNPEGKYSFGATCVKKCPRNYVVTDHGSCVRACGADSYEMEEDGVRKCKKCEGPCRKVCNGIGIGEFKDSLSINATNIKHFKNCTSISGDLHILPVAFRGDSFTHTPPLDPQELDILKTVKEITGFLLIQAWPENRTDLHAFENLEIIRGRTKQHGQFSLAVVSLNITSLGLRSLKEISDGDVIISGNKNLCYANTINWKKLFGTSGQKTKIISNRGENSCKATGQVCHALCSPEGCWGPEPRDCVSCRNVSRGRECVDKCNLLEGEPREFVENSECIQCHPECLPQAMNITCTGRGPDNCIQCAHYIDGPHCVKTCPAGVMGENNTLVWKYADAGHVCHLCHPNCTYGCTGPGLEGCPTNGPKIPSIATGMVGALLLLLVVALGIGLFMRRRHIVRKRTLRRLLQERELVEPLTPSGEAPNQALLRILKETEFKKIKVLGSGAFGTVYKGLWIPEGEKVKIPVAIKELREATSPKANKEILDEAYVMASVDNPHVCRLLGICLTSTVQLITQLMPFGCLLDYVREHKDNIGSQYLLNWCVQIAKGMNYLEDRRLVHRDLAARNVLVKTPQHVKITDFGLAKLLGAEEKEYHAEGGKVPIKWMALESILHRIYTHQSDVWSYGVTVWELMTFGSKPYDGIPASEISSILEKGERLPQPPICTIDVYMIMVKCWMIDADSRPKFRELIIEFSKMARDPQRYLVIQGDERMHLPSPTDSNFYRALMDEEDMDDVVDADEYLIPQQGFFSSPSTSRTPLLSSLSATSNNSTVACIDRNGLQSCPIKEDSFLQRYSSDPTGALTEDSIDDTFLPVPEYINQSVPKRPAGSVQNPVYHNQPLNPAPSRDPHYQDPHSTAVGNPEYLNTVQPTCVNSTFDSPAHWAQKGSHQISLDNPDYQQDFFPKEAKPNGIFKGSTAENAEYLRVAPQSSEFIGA
Chain of Ba/F3 cells with EGFR Δ19del/T790M/C797S mutation gene stably overexpressed (P00533 with tags, fused parts or gaps DEL746-750/T790M/C797S, form open): as the sequence (P00533 with tags, fused parts or gaps DEL746-750/T790M/C797S, form open) above
Chain of Ba/F3-EGFR wild-type cell line (P00533 whole entry, stated change not applied): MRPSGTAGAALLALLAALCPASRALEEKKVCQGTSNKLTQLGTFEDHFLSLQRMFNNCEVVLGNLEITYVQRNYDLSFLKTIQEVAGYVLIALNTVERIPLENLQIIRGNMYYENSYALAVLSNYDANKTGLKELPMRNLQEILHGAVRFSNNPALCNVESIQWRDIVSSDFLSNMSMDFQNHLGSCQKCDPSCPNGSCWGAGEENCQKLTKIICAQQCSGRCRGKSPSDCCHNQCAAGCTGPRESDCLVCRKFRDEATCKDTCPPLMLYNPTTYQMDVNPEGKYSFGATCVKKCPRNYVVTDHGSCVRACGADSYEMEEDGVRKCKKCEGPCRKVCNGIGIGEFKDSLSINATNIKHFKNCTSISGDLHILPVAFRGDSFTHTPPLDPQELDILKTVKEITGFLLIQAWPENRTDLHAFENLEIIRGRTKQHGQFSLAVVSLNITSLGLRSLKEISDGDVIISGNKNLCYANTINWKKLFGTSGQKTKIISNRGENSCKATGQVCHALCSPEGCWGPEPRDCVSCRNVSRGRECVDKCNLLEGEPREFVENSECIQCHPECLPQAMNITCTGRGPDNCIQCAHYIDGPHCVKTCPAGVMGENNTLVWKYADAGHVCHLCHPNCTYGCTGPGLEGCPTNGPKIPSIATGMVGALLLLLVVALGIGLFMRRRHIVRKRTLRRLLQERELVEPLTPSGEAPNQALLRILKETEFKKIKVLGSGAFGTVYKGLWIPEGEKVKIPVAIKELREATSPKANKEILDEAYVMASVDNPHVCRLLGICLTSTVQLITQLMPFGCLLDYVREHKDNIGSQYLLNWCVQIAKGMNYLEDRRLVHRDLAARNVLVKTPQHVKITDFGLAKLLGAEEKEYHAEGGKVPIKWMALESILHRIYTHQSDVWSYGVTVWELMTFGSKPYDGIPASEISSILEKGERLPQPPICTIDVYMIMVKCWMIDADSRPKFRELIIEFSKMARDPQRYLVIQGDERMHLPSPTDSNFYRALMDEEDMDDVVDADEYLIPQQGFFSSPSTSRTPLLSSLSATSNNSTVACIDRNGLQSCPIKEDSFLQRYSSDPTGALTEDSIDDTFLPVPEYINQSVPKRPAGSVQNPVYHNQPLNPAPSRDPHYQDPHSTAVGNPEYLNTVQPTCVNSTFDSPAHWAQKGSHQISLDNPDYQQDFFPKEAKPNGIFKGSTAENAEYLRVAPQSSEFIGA

On to `COc1cc(N2CCC(N3CCN(C)CC3)CC2)c(C)cc1Nc1ncc(Br)c(Nc2ccc(-c3cnn(C)n3)cc2P(C)(C)=O)n1` [Compound K-008, (2-((5-Bromo-2-((2-methoxy-5-methyl-4-(4-(4-methylpiperazin-1-yl)piperidin-1-yl)phenyl)amino)pyrimidin-4-yl)amino)-5-(2-methyl-2H-1,2,3-triazol-4-yl)phenyl)dimethylphosphine oxide], for which the IC50 in the assay on A431 was 415 nM; on IGF1R, 120 nM; against EGFR WT it was 15 nM; on EGFRΔ19del/T790M/C797S it was 0.24 nM. For the same compound, the GI50 in assay [1] came to 169 nM; in assay [2], 4.8 nM.

As to `C#Cc1cnn(-c2ccc(Nc3nc(Nc4cc(CC)c(N5CCC(N6CCN(C)CC6)CC5)cc4OC)ncc3Br)c(P(C)(C)=O)c2)c1` [Compound K-009, (2-((5-Bromo-2-((5-ethyl-2-methoxy-4-(4-(4-methylpiperazin-1-yl)piperidin-1-yl)phenyl)amino)pyrimidin-4-yl)amino)-5-(4-ethynyl-1H-pyrazol-1-yl)phenyl)dimethylphosphine oxide], the IC50 in the assay on A431 is 2460 nM; at IGF1R it was 165 nM; against EGFR WT, 21 nM; against EGFRΔ19del/T790M/C797S, 0.23 nM. Moreover, the GI50 in assay [1] came out at 268 nM; in assay [2] it was 16.4 nM.

As to `C#Cc1cnc(-c2ccc(Nc3nc(Nc4cc(CC)c(N5CCC(N6CCN(C)CC6)CC5)cc4OC)ncc3Br)c(P(C)(C)=O)c2)cn1` [Compound K-010, (2-((5-Bromo-2-((5-ethyl-2-methoxy-4-(4-(4-methylpiperazin-1-yl)piperidin-1-yl)phenyl)amino)pyrimidin-4-yl)amino)-5-(5-ethynylpyrazin-2-yl)phenyl)dimethylphosphine oxide], the IC50 came to 693 nM in the assay on A431, 46 nM at IGF1R, 17 nM against EGFR WT and 0.4 nM on EGFRΔ19del/T790M/C797S. Besides, the GI50 in assay [1] was 52.8 nM; in assay [2], 7.2 nM.

Take `C#Cc1cnc(-c2ccc(Nc3nc(Nc4cc(C)c(N5CCC(N6CCN(C)CC6)CC5)cc4OC)ncc3Br)c(P(C)(C)=O)c2)cn1` [Compound K-011]: the IC50 with A431 is 4450 nM; on IGF1R, 104 nM; against EGFR WT it was 28 nM; on EGFRΔ19del/T790M/C797S, 0.45 nM. The GI50 amounted to 81.8 nM in assay [1] and 7.4 nM in assay [2].

`COc1cc(Nc2ncc(Br)c(Nc3ccc(-c4cnn(C)n4)c(F)c3P(C)(C)=O)n2)c(C)cc1N1CCC(N2CCN(C)CC2)CC1` [Compound K-012, (6-((5-Bromo-2-((5-methoxy-2-methyl-4-(4-(4-methylpiperazin-1-yl)piperidin-1-yl)phenyl)amino)pyrimidin-4-yl)amino)-2-fluoro-3-(2-methyl-2H-1,2,3-triazol-4-yl)phenyl)diniethylphosphine oxide]: the IC50 was 5220 nM in the assay with A431, 35 nM on IGF1R, 12 nM at EGFR WT and 0.19 nM against EGFRΔ19del/T790M/C797S. For the same compound, the GI50 in assay [1] was found to be 46 nM; in assay [2], 2.6 nM.

As for `C#Cc1cncc(-c2ccc(Nc3nc(Nc4cc(CC)c(N5CCC(N6CCN(C)CC6)CC5)cc4OC)ncc3Br)c(P(C)(C)=O)c2)n1` [Compound K-013, (2-((5-Bromo-2-((5-ethyl-2-methoxy-4-(4-(4-methylpiperazin-1-yl)piperidin-1-yl)phenyl)amino)pyrimidin-4-yl)amino)-5-(6-ethynylpyrazin-2-yl)phenyl)dimethylphosphine oxide], the IC50 in the assay with A431 was found to be 1420 nM; at IGF1R, 166 nM; against EGFR WT, 22.1 nM; at EGFRΔ19del/T790M/C797S it was 0.3 nM. For the same compound, the GI50 was found to be 70 nM in assay [1] and 15.2 nM in assay [2].

Regarding `C#Cc1cnc(-c2ccc(Nc3nc(Nc4cc(OC)c(N5CCC(N6CCN(C)CC6)CC5)cc4C)ncc3Br)c(P(C)(C)=O)c2)cn1` [Compound K-014, (2-((5-Bromo-2-((5-methoxy-2-methyl-4-(4-(4-methylpiperazin-1-yl)piperidin-1-yl)phenyl)imino)pyrimidin-4-yl)amino)-5-(5-ethynylpyrazin-2-yl)phenyl)dimethylphosphine oxide], the half-maximal inhibitory concentration (IC50) with A431 amounted to 816 nM; on IGF1R it was 50.5 nM; against EGFR WT, 32.5 nM; against EGFRΔ19del/T790M/C797S it was 0.5 nM. The values for the GI50 in assay [1] and in assay [2] were 56 nM and 7.6 nM, respectively.

`COc1cc(Nc2ncc(Br)c(Nc3ccc(-c4cnn(C)n4)cc3P(C)(C)=O)n2)c(C)cc1N1CCOCC1` [Compound K-015, (2-((5-Bromo-2-((5-methoxy-2-methyl-4-morpholinophenyl)amino)pyrimidin-4-yl)amino)-5-(2-methyl-2H-1,2,3-triazol-4-yl)phenyl)dimethylphosphine oxide]: the half-inhibitory concentration (IC50) with A431 was 953 nM; on IGF1R, 56.6 nM; on EGFR WT, 27.4 nM; against EGFRΔ19del/T790M/C797S, 0.2 nM. The GI50 in assay [1] stood at 178 nM; in assay [2], 13.6 nM.

On to `C#Cc1ccc(-c2ccc(Nc3nc(Nc4cc(C)c(N5CCC(N6CCN(C)CC6)CC5)cc4OC)ncc3Br)c(P(C)(C)=O)c2)s1` [Compound K-016, (2-((5-Bromo-2-((2-methoxy-5-methyl-4-(4-(4-methylpiperazin-1-yl)piperidin-1-yl)phenyl)amino)pyrimidin-4-yl)amino)-5-(5-ethynylthiophen-2-yl)phenyl)dimethylphosphine oxide], for which the IC50 with A431 was determined as 497 nM; on IGF1R, 94 nM; against EGFR WT, 13.1 nM; against EGFRΔ19del/T790M/C797S, 0.5 nM. In addition, the GI50 in assay [1] was 145 nM; in assay [2], 15.3 nM.

Turning to `COc1cc(Nc2ncc(Br)c(Nc3ccc(-c4cnccn4)cc3P(C)(C)=O)n2)c(C)cc1N1CCC(N2CCN(C)CC2)CC1` [Compound K-017, (2-((5-Bromo-2-((5-methoxy-2-methyl-4-(4-(4-methylpiperazin-1-yl)piperidin-1-yl)phenyl)amino)pyrimidin-4-yl)amino)-5-(pyrazin-2-yl)phenyl)dimethylphosphine oxide], the IC50 in the assay with A431 was 812 nM; at IGF1R it was 39.1 nM; against EGFR WT it was 14.4 nM; against EGFRΔ19del/T790M/C797S it was 0.5 nM. Also, the GI50 in assay [1] was determined as 445 nM; in assay [2], 12 nM.

On to `COc1cnn(-c2ccc(Nc3nc(Nc4cc(OC)c(N5CCC(N6CCN(C)CC6)CC5)cc4C)ncc3Br)c(P(C)(C)=O)c2)c1` [Compound K-018, (2-((5-Bromo-2-((5-methoxy-2-methyl-4-(4-(4-methylpiperazin-1-yl)piperidin-1-yl)phenyl)amino)pyrimidin-4-yl)amino)-5-(4-methoxy-1H-pyrazol-1-yl)phenyl)dimethylphosphine oxide], for which the IC50 with A431 came to 1060 nM; on IGF1R, 67.2 nM; at EGFR WT, 17.1 nM; at EGFRΔ19del/T790M/C797S, 0.2 nM. In addition, the GI50 in assay [1] was 295 nM; in assay [2] it was 9.7 nM.

`COc1cc(Nc2ncc(Br)c(Nc3ccc(-c4nccs4)cc3P(C)(C)=O)n2)c(C)cc1N1CCC(N2CCN(C)CC2)CC1` [Compound K-019, (2-((5-Bromo-2-((5-methoxy-2-methyl-4-(4-(4-methylpiperazin-1-yl)piperidin-1-yl)phenyl)amino)pyrimidin-4-yl)amino)-5-(thiazol-2-yl)phenyl)dimethylphosphine oxide]: the IC50 with A431 stood at 535 nM; at IGF1R, 33.1 nM; against EGFR WT, 14.7 nM; against EGFRΔ19del/T790M/C797S, 0.2 nM. The GI50 is 48.7 nM in assay [1] and 16 nM in assay [2].

Consider `CCc1cc(Nc2ncc(Br)c(Nc3ccc(-n4cc(OC)cn4)cc3P(C)(C)=O)n2)c(OC)cc1N1CCC(N2CCCCC2)CC1` [Compound K-020], for which the IC50 in the assay on A431 came to 1130 nM; at IGF1R, 126 nM; against EGFR WT it was 22 nM; at EGFRΔ19del/T790M/C797S, 0.3 nM. Besides, the values for the GI50 in assay [1] and in assay [2] were 226 nM and 9.2 nM, respectively.

Turning to `COc1cc(Nc2ncc(Br)c(Nc3ccc(-c4cnn(C)n4)cc3P(C)(C)=O)n2)c(C)cc1N1CCC(N2CCOCC2)CC1` [Compound K-021, (2-((5-Bromo-2-((5-methoxy-2-methyl-4-(4-morpholinopiperidin-1-yl)phenyl)amino)pyrimidin-4-yl)amino)-5-(2-methyl-2H-1,2,3-triazol-4-yl)phenyl)dimethylphosphine oxide], the IC50 in the assay on A431 stood at 3870 nM; on IGF1R, 21.6 nM; at EGFR WT it was 8.4 nM; against EGFRΔ19del/T790M/C797S, 0.3 nM. Further, the values for the GI50 in assay [1] and in assay [2] were 84 nM and 2.3 nM, respectively.

In the case of `COc1cc(Nc2ncc(Br)c(Nc3ccc(-c4cnccn4)cc3P(C)(C)=O)n2)c(C)cc1N1CCOCC1` [Compound K-022], the IC50 amounted to 1460 nM with A431, 52.5 nM at IGF1R, 31.8 nM against EGFR WT and 0.2 nM at EGFRΔ19del/T790M/C797S. Besides, the GI50 in assay [1] was 281 nM; in assay [2] it was 16.5 nM.
